From paper PMC8968952, “Modulation of ERCC1-XPF Heterodimerization Inhibition via Structural Modification of Small Molecule Inhibitor Side-Chains” (Frontiers in Oncology, 2022)
Where “and” joins values, the source holds several entries; their conditions need not be identical. Equal values may be shown once.

Columns and labels:
[1] = biological target: T1, ERCC1-XPF heterodimer in A549 cells (Homo sapiens, UniProt Q92889); assay: Proximity ligation assay of ERCC1-XPF heterodimerization; type: cell-based; conditions: 2 µM, 24 h
T1 construct: endogenous in cells; host or cells: A549
T1 sequence (Q92889 1-916): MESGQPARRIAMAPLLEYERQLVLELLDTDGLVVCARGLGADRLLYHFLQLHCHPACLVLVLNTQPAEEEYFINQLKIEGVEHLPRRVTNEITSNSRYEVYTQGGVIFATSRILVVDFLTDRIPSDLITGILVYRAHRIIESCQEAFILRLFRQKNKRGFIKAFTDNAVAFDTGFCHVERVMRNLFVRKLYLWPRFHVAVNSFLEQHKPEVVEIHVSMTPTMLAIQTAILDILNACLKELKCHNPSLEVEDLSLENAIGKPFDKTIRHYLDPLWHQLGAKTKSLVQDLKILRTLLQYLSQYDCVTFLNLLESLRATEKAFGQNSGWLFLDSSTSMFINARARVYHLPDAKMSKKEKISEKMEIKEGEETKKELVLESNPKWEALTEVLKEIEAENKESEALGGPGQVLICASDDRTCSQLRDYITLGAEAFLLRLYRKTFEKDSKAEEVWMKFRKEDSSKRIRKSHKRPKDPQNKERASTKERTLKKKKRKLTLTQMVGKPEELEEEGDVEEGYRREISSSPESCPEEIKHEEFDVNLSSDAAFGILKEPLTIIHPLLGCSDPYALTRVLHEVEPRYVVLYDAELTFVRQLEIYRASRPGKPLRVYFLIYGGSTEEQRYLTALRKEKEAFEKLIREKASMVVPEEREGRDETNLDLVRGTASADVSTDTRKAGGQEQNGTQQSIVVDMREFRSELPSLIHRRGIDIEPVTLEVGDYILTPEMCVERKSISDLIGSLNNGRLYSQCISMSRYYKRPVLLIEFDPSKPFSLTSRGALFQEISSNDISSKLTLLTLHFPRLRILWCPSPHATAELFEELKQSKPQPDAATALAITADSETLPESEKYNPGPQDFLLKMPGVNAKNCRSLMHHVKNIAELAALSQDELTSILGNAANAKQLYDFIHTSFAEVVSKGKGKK
Procedure: A previously published protocol ([73]) was followed with minor modifications. Briefly, 3 x 10^4 A549 cells were seeded in each well of an 8-well Chamber Slide system (Ibidi. Fitchburg, WI) and allowed to adhere overnight. The cells were then treated with the inhibitor (2 μM prepared from a 1 mM stock in DMSO) or vehicle control (0.2% DMSO) and incubated for 24 h. Samples were fixed and processed for protein proximity ligation analysis (PLA) by the Duolink PLA assay kit (Sigma-Aldrich, Oakville, ON) using an ERCC1 antibody (A73368-100, 1/100; EpiGentek, Farmingdale, NY) and an XPF antibody (LS-C173159, 1/100; LifeSpan BioSciences, Seattle, WA). […] Images of the interaction of ERCC1 and XPF represented as red dots were analyzed using IMARIS 9.7 software (Oxford Instruments). Results are expressed as mean values from at least three experiments conducted independently in duplicate.
To confirm that compound 6 was able to disrupt the interaction between subunits in the ERCC1-XPF heterodimer in cells, we performed PLA using A549 lung cancer cells exposed to 2 µM compound 6 or DMSO vehicle for 24 h. […] In the presence of vehicle (0.2% DMSO) alone we observed an average of 75.7 ± 15.4 foci per cell whereas in the presence of compound 6 only an average of 3.1 ± 2.6 foci per cell were detected. […]

HCT-116 cells = assay: Cytotoxicity assay using colony forming assay; type: cell-based, human; conditions: 0.5 μM
Procedure: HCT-116 cells were incubated with media containing a non-toxic concentration of 6 or 10 ( Supplementary Figure 3 ) prior to exposure to the DNA damaging agents. […]
nitrocellulose. Proteins were visualized using ERCC1 (A73368-100, 1:1000; EpiGentek), XPF (LS- […]
primary antibodies followed by secondary anti-mouse or anti-rabbit secondary HRP-conjugated secondary antibodies. ECL chemiluminescent substrate (Promega) was used to detect the proteins.
Supplementary Figure 3. Cytotoxicity assay using colony forming assay
4 HCT-116 Derived XPF Knockout Cells
For CRISPR deletion of XPF from HCT-116 cells, the pSpCas9(BB)-2A-GFP (pX458) vector (Addgene plasmid # 48138) was used. The short guide sequence to target XPF exon one was: 5'- […]
- 3' and target XPF exon eight was: 5'-
-3'. All short guide sequences oligonucleotides were synthesized, annealed and cloned into pX458 vector and were confirmed by DNA sequencing at DNA laboratory, University of Calgary. The DNA plasmid (pX458 containing XPF short guide RNA sequence, 5 µg) was transfected into HCT-116 cells using Lipofectamine 2000 (Invitrogen) according to the manufacturer’s instructions. Forty-eight hours after transfection, cells were harvested and genomic DNA was isolated using the KAPA Express Extract Kit (Kapa Biosystems) according to the manufacturer’s instructions. […]

SMILES: COc1ccc2nc3cc(Cl)ccc3c(Nc3ccc(O)c(CN4CCN(CCN(C(C)C)C(C)C)CC4)c3)c2c1 [Compound 6]
- ERCC1-XPF PLA foci per cell [1]: 3.1 ± 2.6 foci per cell and 3 foci per cell
- toxicity of the concentration used (in words) (HCT-116 cells): non-toxic
